Data: patent US20150119251A1, “AGRICULTURAL PLANT-PROTECTING AGENTS CONTAINING DIPEPTIDE DERIVATIVE AS ACTIVE INGREDIENT” (REPUBLIC OF KOREA (RURAL DEVELOPMENT ADMINISTRATION), priority 2012, published 2015)

Columns and labels:
[1] = tested on: pepper phytophthora blight (Phytopthora capsici); experiment: Suppression of pepper phytophthora blight on leaves; format: in vivo; settings: 0.1 mM
[2] = tested on: tobacco bacterial rot (Pectobacterium carotovorum); experiment: Suppression of tobacco bacterial rot; format: in vivo, Pectobacterium carotovorum SCC1
Procedure, shortened: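 Test compounds at 1, 10 and 100 ppm (from 20% methanol stock) were applied to tobacco leaves; 7 days later plants were sprayed with Pectobacterium carotovorum SCC1 at 10^8 cfu/mL and kept 3 days at 30° C. Lesion area scored visually as 0–100%.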

[3] = tested on: GUS gene induced by PR-1α disease-resistance promoter; experiment: PR-1a GUS activation on tobacco leaves (MUG fluorescence); format: in vivo, tobacco (Xanth-nc); settings: 0.1 mM, tobacco leaf injection, after three days
Method: After the tobacco (Xanth-nc) bound with GUS gene induced by PR-1α disease-resistance promoter was grown for 3 weeks, 100 μL of the diluted solution of Compound 74 was injected to second leaves with a syringe. After three days, the surrounding leaves were collected in an internal diameter size of 5 mm with a cork borer, the samples thus obtained were added to a 1.5 mL of an eppendorf tube, and 20 μL of GUS extraction buffer solution was further added, ground, and then centrifuged at 8000 G for 3 minutes to obtain supernatant. The same amount of 2 mM MUG (4-methyl umbellifryl-B-glucuronide) solution was added, reacted at 37° C. for 1 hour, and then 960 μL of stop buffer solution (0.2 M, Na2CO3 solution) was added to be 1 mL. Since then, the fluorescence was measured with a TKO 100 fluorometer (Hoefoer Scientific Instruments, USA). At this time, the fluorescence amount was calibrated using a MU (4-methyl umbellyferon) as a standard reagent, and the GUS activity was calculated using MU-mM/sample−10 mg/time. The results thus obtained are listed in the following Table 2 and illustrated in FIG. 2.

CSC(=O)c1cccc2nnsc12 [BTH, benzo-1,2,3-thiadiazole-7-carbothio acid S-methyl ester, reference compound]
Lesion outbreak rate [1]: 17 area %
Lesion outbreak rate ([2]; Table 3, tobacco, 1 ppm): 90%
Lesion outbreak rate ([2]; Table 3, tobacco, 10 ppm): 90%
Lesion outbreak rate ([2]; Table 3, tobacco, 100 ppm): 90%
Lesion outbreak rate ([2]; Table 4, tobacco, 1 ppm): 88%
Lesion outbreak rate ([2]; Table 4, tobacco, 10 ppm): 88%
Lesion outbreak rate ([2]; Table 4, tobacco, 100 ppm): 88%
Lesion outbreak rate ([2]; Table 5, tobacco, 10 ppm): 25%
Lesion outbreak rate ([2]; Table 5, tobacco, 100 ppm): 25%
Lesion outbreak rate ([2]; Table 6, tobacco, 1 ppm): 100%
Lesion outbreak rate ([2]; Table 6, tobacco, 10 ppm): 100%
Lesion outbreak rate ([2]; Table 6, tobacco, 100 ppm): 100%
PR1a GUS expression [3]: 324,000 nM MU/10 mg FW/1 hr
